{"source": "patent US20140106967A1", "about": "“AUXIN PLANT GROWTH REGULATORS” (The Governors of The University of Alberta, priority 2011, published 2014)", "key": {"canola cv. Peace": {"system": "canola cv. Peace", "experiment": "Greenhouse canola study, foliar auxin spray at green bud stage, with or without heat stress (Tables C1-C4)", "type": "in vivo, Brassica napus", "details": "for % pod set / Seed yield / Total number of flowers / Total number of pods with developing seeds / Total number of racemes / Total number undeveloped pods: heat stress 33° C. 6 h/day, 6 days (Table C2); for % pod set per plant / Seed yield (g) per plant / Total number of flowers per plant / Total number of pods with developing seeds per plant / Total number of racemes per plant / Total number undeveloped pods per plant: non-heat stress (Table C1)", "procedure": "Canola seeds (Brassica napus) from the cultivar Peace were planted at an approximate depth of 1 cm in 5 inch square plastic pots (6 inch pot depth; 4 seeds per pot) in 1:1 Sunshine #4 potting mix (Sun Gro Horticulture, Vancouver, Canada) and sand. The seedlings were thinned to one seedling per pot approximately 2 weeks after seeding. Plants were grown at the University of Alberta in a greenhouse from Nov. 14, 2011 to Mar. 5, 2012. The average temperature was approximately 18° C. day/16° C. night (Nov. 14, 2011 to Feb. 8, 2012) then 21° C. day/19° C. night from Feb. 8 to Mar. 5, 2012. The plants also received supplemental lighting daily (average photon flux density of 250 μE m^−2s^−2) for 16 hours per day (from 6 am to 10 pm).\nThe auxins, 4-methyl-indole-3-acetic acid (4-ME-IAA) or 4-chloro-indole-3-acetic acid (4-Cl-IAA) at 1×10^−7, 1×10^−6, 1×10^−5, or 1×10^−4M in aqueous 0.1% (v/v) Tween 80 or a control solution (aqueous 0.1% [v/v] Tween 80) were applied one time as a foliar spray to canola plants at the green bud stage (BBCH scale 51; prior to bolting when flower buds are visible from above, but they are tightly clustered and have not extended above smallest leaves surrounding the inflorescence). The experiment was arranged in a completely randomized design in the greenhouse.\nThe heat stress treatment was imposed by moving plants to receive the heat stress from the greenhouse into a growth chamber for 6 days. The light cycle began at 7:00 hours at a 19° C. air temperature. The heat treatment began at 11:00 hours (33° C. air temperature) and was maintained for 6 hours (until 17:00 hours). Following the heat treatment, the remainder of the light cycle was maintained at a 22° C. air temperature. The dark cycle (began at 23:00 hours) was maintained at 17° C. The photoperiod was 16 h light/8 h dark at an average photon flux density of 492 μE m^−2s^−2 using 54W/835/HO high fluorescent bulbs, Phillips, Holland. This heat treatment cycle was imposed for 6 days. The plants were returned to the greenhouse after the heat stress treatment to develop to maturity."}, "wheat 'Harvest HRS'": {"system": "wheat 'Harvest HRS'", "experiment": "Wheat field experiment (Table W1)", "type": "in vivo, Triticum aestivum", "details": "1×10^−5 M", "procedure": "The wheat (Triticum aestivum) cultivar Harvest HRS was seeded on May 20, 2011 with a target of 250 seedlings per m^2 into a field plot located at the St. Albert Field-Research Station of the University of Alberta, St. Albert, Alberta, Canada that was seeded with canola the previous season. Eight 2×4 m plots were cut out of a larger field plot with a mower producing two rows of four 2×4 m plots with a 1 m buffer between each plot and 4 m between the 4-plot rows. The hormone treatments were randomly assigned to the 2×4 plots. Aqueous solutions of 4-ME-IAA at 1×10^−5 M in 0.1% (v/v) Tween 80 or control solutions (0.1% [v/v]Tween 80) were sprayed Jul. 15, 2011 in slightly breezy (8 km/h), overcast weather, temperature 16° C. Three hours later, the sun emerged and the ambient temperature rose from 16° C. to 21° C. The relative humidity at the time of spraying was 75%. On average, 15% of the plants in the plots had their first florets open at the time of hormone application. A separate Chapin 20000-type 4 L pneumatic sprayer was used for applying the 4-ME-IAA and the control solutions; each sprayer was equipped with a medium-delivery blue fan nozzle designed to deliver 1.4 L per minute at the normal operating pressure of 40 PSI. Each plot was sprayed with a total of 0.91 L of solution to obtain uniform coverage."}, "pea pericarp": {"system": "pea pericarp", "experiment": "Split-pericarp assay: growth of deseeded pea pericarps attached to the plant", "type": "in vivo, Pisum sativum", "description": "In addition to GAs, developing pea seeds and pericarps contain two auxins, 4-chloroindole-3-acetic acid (4-Cl-IAA) and indole-3-acetic acid (IAA) (Magnus et al. 1997). A split-pericarp assay where test compounds are applied to the inner wall of split and deseeded pericarps that are still attached to the plant has been developed to examine the effects of exogenously applied growth substances on pericarp growth.\nDuring early pea fruit growth, the physiological roles of 4-chloroindole-3-acetic acid (4-Cl-IAA) and IAA, both natural pea auxins, in regulating gibberellin (GA) 20-oxidase gene expression (PsGA20ox1) were tested with 4-position, ring-substituted auxins that have a range of biological activities (fruit growth). The effect of seeds, and natural and synthetic auxins (4-Cl-IAA, and IAA; 4-Me-IAA, 4-Et-IAA and 4-F-IAA, respectively), and auxin concentration (4-Cl-IAA) on PsGA20ox1 mRNA levels in pea pericarp were investigated over a 24 h treatment period. The ability of certain 4-substituted auxins to increase PsGA20ox1 mRNA levels in deseeded pericarp was correlated with their ability to stimulate pericarp growth."}, "[1]": {"details": "At maturity, 20 spikes per plot"}}}
{"smiles": "Cc1cccc2[nH]cc(CC(=O)O)c12", "note": "[4-ME-IAA, 4-methyl-indole-3-acetic acid]", "values": [{"measurement": "leaf epinasty", "setting": "canola cv. Peace; 1×10^−4 M, 24 hours after treatment, milder under heat stress", "value": "leaf epinasty was observed"}, {"measurement": "% pod set", "setting": "canola cv. Peace; 1×10^−4 M", "value": "60 ± 1", "unit": "%"}, {"measurement": "Seed yield", "setting": "canola cv. Peace; 1×10^−4 M", "value": "6.0 ± 1.0", "unit": "g"}, {"measurement": "Total number of flowers", "setting": "canola cv. Peace; 1×10^−4 M", "value": "326 ± 34"}, {"measurement": "Total number of pods with developing seeds", "setting": "canola cv. Peace; 1×10^−4 M", "value": "196 ± 19"}, {"measurement": "Total number of racemes", "setting": "canola cv. Peace; 1×10^−4 M", "value": "12 ± 1"}, {"measurement": "Total number undeveloped pods", "setting": "canola cv. Peace; 1×10^−4 M", "value": "34 ± 10"}, {"measurement": "% pod set per plant", "setting": "canola cv. Peace; 1×10^−4 M", "value": "57 ± 2", "unit": "%"}, {"measurement": "Seed yield (g) per plant", "setting": "canola cv. Peace; 1×10^−4 M", "value": "4.9 ± 0.4", "unit": "g"}, {"measurement": "Total number of flowers per plant", "setting": "canola cv. Peace; 1×10^−4 M", "value": "261 ± 14"}, {"measurement": "Total number of pods with developing seeds per plant", "setting": "canola cv. Peace; 1×10^−4 M", "value": "148 ± 9"}, {"measurement": "Total number of racemes per plant", "setting": "canola cv. Peace; 1×10^−4 M", "value": "11 ± 1"}, {"measurement": "Total number undeveloped pods per plant", "setting": "canola cv. Peace; 1×10^−4 M", "value": "16 ± 2"}, {"measurement": "increase in total number of flowers per plant vs control", "setting": "canola cv. Peace; 1×10^−5 M, heat stress", "value": 43, "unit": "%"}, {"measurement": "increase in total number of racemes per plant vs control", "setting": "canola cv. Peace; 1×10^−5 M, heat stress", "value": 38, "unit": "%"}, {"measurement": "% pod set", "setting": "canola cv. Peace; 1×10^−5 M", "value": "50 ± 2", "unit": "%"}, {"measurement": "Seed yield", "setting": "canola cv. Peace; 1×10^−5 M", "value": "5.9 ± 1.2", "unit": "g"}, {"measurement": "Total number of flowers", "setting": "canola cv. Peace; 1×10^−5 M", "value": "520 ± 102"}, {"measurement": "Total number of pods with developing seeds", "setting": "canola cv. Peace; 1×10^−5 M", "value": "259 ± 55"}, {"measurement": "Total number of racemes", "setting": "canola cv. Peace; 1×10^−5 M", "value": "18 ± 2"}, {"measurement": "Total number undeveloped pods", "setting": "canola cv. Peace; 1×10^−5 M", "value": "64 ± 13"}, {"measurement": "% pod set per plant", "setting": "canola cv. Peace; 1×10^−5 M", "value": "62 ± 5", "unit": "%"}, {"measurement": "Seed yield (g) per plant", "setting": "canola cv. Peace; 1×10^−5 M", "value": "5.7 ± 0.7", "unit": "g"}, {"measurement": "Total number of flowers per plant", "setting": "canola cv. Peace; 1×10^−5 M", "value": "265 ± 14"}, {"measurement": "Total number of pods with developing seeds per plant", "setting": "canola cv. Peace; 1×10^−5 M", "value": "165 ± 18"}, {"measurement": "Total number of racemes per plant", "setting": "canola cv. Peace; 1×10^−5 M", "value": "10 ± 0"}, {"measurement": "Total number undeveloped pods per plant", "setting": "canola cv. Peace; 1×10^−5 M", "value": "22 ± 6"}, {"measurement": "% pod set", "setting": "canola cv. Peace; 1×10^−6 M", "value": "44 ± 7", "unit": "%"}, {"measurement": "Total number of flowers", "setting": "canola cv. Peace; 1×10^−6 M", "value": "435 ± 89"}, {"measurement": "Total number of pods with developing seeds", "setting": "canola cv. Peace; 1×10^−6 M", "value": "167 ± 15"}, {"measurement": "Total number of racemes", "setting": "canola cv. Peace; 1×10^−6 M", "value": "13 ± 2"}, {"measurement": "Total number undeveloped pods", "setting": "canola cv. Peace; 1×10^−6 M", "value": "71 ± 37"}, {"measurement": "% pod set per plant", "setting": "canola cv. Peace; 1×10^−6 M", "value": "62 ± 3", "unit": "%"}, {"measurement": "Total number of flowers per plant", "setting": "canola cv. Peace; 1×10^−6 M", "value": "250 ± 21"}, {"measurement": "Total number of pods with developing seeds per plant", "setting": "canola cv. Peace; 1×10^−6 M", "value": "155 ± 16"}, {"measurement": "Total number of racemes per plant", "setting": "canola cv. Peace; 1×10^−6 M", "value": "10 ± 1"}, {"measurement": "Total number undeveloped pods per plant", "setting": "canola cv. Peace; 1×10^−6 M", "value": "17 ± 5"}, {"measurement": "% pod set", "setting": "canola cv. Peace; 1×10^−7 M", "value": "52 ± 4", "unit": "%"}, {"measurement": "Seed yield", "setting": "canola cv. Peace; 1×10^−7 M", "value": "5.4 ± 0.9", "unit": "g"}, {"measurement": "Total number of flowers", "setting": "canola cv. Peace; 1×10^−7 M", "value": "418 ± 25"}, {"measurement": "Total number of pods with developing seeds", "setting": "canola cv. Peace; 1×10^−7 M", "value": "213 ± 6"}, {"measurement": "Total number of racemes", "setting": "canola cv. Peace; 1×10^−7 M", "value": "14 ± 1"}, {"measurement": "Total number undeveloped pods", "setting": "canola cv. Peace; 1×10^−7 M", "value": "50 ± 26"}, {"measurement": "increase in total number of pods with developing seeds per plant vs control", "setting": "canola cv. Peace; 1×10^−7 M, heat stress (6 hours at 33° C. per day for 6 days)", "value": 13, "unit": "%"}, {"measurement": "increase in seed yield vs control", "setting": "canola cv. Peace; 1×10^−7 M, non-heat stress", "value": 22, "unit": "%"}, {"measurement": "increase in total number of pods with developing seeds per plant vs control", "setting": "canola cv. Peace; 1×10^−7 M, non-heat stress", "value": 10, "unit": "%"}, {"measurement": "% pod set per plant", "setting": "canola cv. Peace; 1×10^−7 M", "value": "66 ± 1", "unit": "%"}, {"measurement": "Seed yield (g) per plant", "setting": "canola cv. Peace; 1×10^−7 M", "value": "5.5 ± 0.4", "unit": "g"}, {"measurement": "Total number of flowers per plant", "setting": "canola cv. Peace; 1×10^−7 M", "value": "256 ± 12"}, {"measurement": "Total number of pods with developing seeds per plant", "setting": "canola cv. Peace; 1×10^−7 M", "value": "170 ± 7"}, {"measurement": "Total number of racemes per plant", "setting": "canola cv. Peace; 1×10^−7 M", "value": "10 ± 1"}, {"measurement": "Total number undeveloped pods per plant", "setting": "canola cv. Peace; 1×10^−7 M", "value": "17 ± 3"}, {"measurement": "increase in seed number per floral spike", "setting": "wheat 'Harvest HRS'", "value": 10, "unit": "%"}, {"measurement": "increase in seed weight per floral spike", "setting": "wheat 'Harvest HRS'", "value": 12, "unit": "%"}, {"measurement": "Seed number per spike", "setting": "wheat 'Harvest HRS'; At maturity", "value": "27.5 ± 1.3"}, {"measurement": "Seed weight per spike", "setting": "wheat 'Harvest HRS'; At maturity", "value": "1.03 ± 0.05", "unit": "g"}, {"measurement": "Total seed number", "setting": "wheat 'Harvest HRS'; [1]", "value": "550.8 ± 26.6"}, {"measurement": "Total seed weight", "setting": "wheat 'Harvest HRS'; [1]", "value": "20.6 ± 1.1", "unit": "g"}, {"measurement": "Number of spikes per plant", "setting": "wheat 'Harvest HRS'; Pre-harvest", "value": "3.825 ± 0.207"}, {"measurement": "Plant height", "setting": "wheat 'Harvest HRS'; Pre-harvest", "value": "94.5 ± 0.4", "unit": "cm"}, {"measurement": "pericarp growth (biological activity)", "setting": "pea pericarp", "value": "second most biologically active auxin"}]}
